This is an account of results in PubChem BioAssay (NCI).

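96-well plates; 48 h exposure; 5 concentrations. Endpoints by linear interpolation between flanking doses. Not reached: highest tested concentration assigned. GI50: concentration for 50% inhibition of growth. Definition used: TGI = concentration required for complete inhibition of growth.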 Some results are limits rather than exact numbers.

Among the test systems are SF-539 CNS; HCT-116 colon; LXFL 529 NSCLC; UACC-257 melanoma; NCI-H460 lung; A498 renal; COLO 205 colon; SN12C renal; CAKI-1 renal; KM20L2 colon; MDA-MB-231 breast.
What all share (experiment): growth of human tumour cells (NCI), 48 h

Consider `CC(C)(C)N=C1CC(C)(C)c2ccccc2C(=Nc2ccccc2)S1`, for which the TGI in the assay on SF-539 CNS, in the assay on HCT-116 colon, in the assay on LXFL 529 NSCLC, in the assay on UACC-257 melanoma, with NCI-H460 lung and with A498 renal was more than 100 µM throughout. In addition, the TGI in the assay with COLO 205 colon is 49.6 µM; in the assay with SN12C renal, more than 100 µM; with CAKI-1 renal it was more than 100 µM; in the assay on KM20L2 colon, more than 100 µM.

Take `Cc1ccc2nc3c(C)c(Cl)c(=O)cc-3sc2c1`: the TGI was 62.3 µM in the assay with SF-539 CNS; 58 µM in the assay with HCT-116 colon; more than 100 µM with LXFL 529 NSCLC; 53.8 µM in the assay on UACC-257 melanoma; 97.4 µM in the assay with NCI-H460 lung; more than 100 µM in the assay with A498 renal. Also, the TGI in the assay on COLO 205 colon is more than 80.8 µM; in the assay with SN12C renal, more than 100 µM; in the assay on CAKI-1 renal it was more than 100 µM; in the assay with KM20L2 colon, more than 100 µM; in the assay on MDA-MB-231 breast, 15.8 µM.

Consider `COc1cccc(NC(=O)CSc2nnc(-c3ccc(N=Cc4ccc(Cl)cc4)cc3)o2)c1`, for which the TGI amounted to 36.3 µM with HCT-116 colon; 50.2 µM in the assay on LXFL 529 NSCLC; 60.6 µM with NCI-H460 lung; 41.4 µM in the assay on COLO 205 colon; 43 µM with SN12C renal; 30.6 µM in the assay with KM20L2 colon.

For the molecule `CN(C)C[C@H]1CC[C@@H](CN(C)C)C1=O`, the TGI in the assay with SF-539 CNS was 21.4 µM; in the assay on HCT-116 colon it was 15.6 µM; in the assay with LXFL 529 NSCLC it was 12.5 µM; in the assay with UACC-257 melanoma it was 16 µM; in the assay on NCI-H460 lung, 37.8 µM; in the assay on A498 renal, more than 50 µM. The TGI is 11.3 µM with COLO 205 colon, 15.4 µM in the assay with SN12C renal, 25.5 µM in the assay with KM20L2 colon and 17.3 µM in the assay with MDA-MB-231 breast. Further, the GI50 in the assay on COLO 205 colon is 759 nM; in the assay on CAKI-1 renal, 297 nM.

Regarding `CN1CCn2c(Br)ccc2C1=O`, the TGI in the assay with SF-539 CNS, in the assay on HCT-116 colon, with LXFL 529 NSCLC, with UACC-257 melanoma, with NCI-H460 lung and in the assay on A498 renal was more than 100 µM in each case. In addition, the TGI in the assay with COLO 205 colon, in the assay with SN12C renal, in the assay on CAKI-1 renal and with KM20L2 colon was more than 100 µM each time.

Take `C/C(=N\NC(N)=O)C(CN1CCCCC1)C(c1ccccc1)c1c(O)c2ccccc2oc1=O` (stereo not drawn): the TGI with SF-539 CNS, in the assay with HCT-116 colon, in the assay with LXFL 529 NSCLC, in the assay with UACC-257 melanoma, with NCI-H460 lung and with A498 renal was more than 100 µM in each case. In addition, the TGI with COLO 205 colon, in the assay on SN12C renal, with CAKI-1 renal, in the assay with KM20L2 colon and in the assay on MDA-MB-231 breast was more than 100 µM throughout. Besides, the GI50 in the assay with MDA-MB-231 breast was more than 100 µM.

For the molecule `O=S1(=O)NNC(=NCc2ccc(Cl)cc2)c2ccccc21`, the TGI in the assay on SF-539 CNS, in the assay with HCT-116 colon, with LXFL 529 NSCLC, with UACC-257 melanoma, in the assay on NCI-H460 lung and in the assay on A498 renal was more than 100 µM throughout. Moreover, the TGI in the assay with COLO 205 colon, in the assay on SN12C renal, with CAKI-1 renal and in the assay with KM20L2 colon was more than 100 µM each time.

As to `COc1cc([C@@H]2c3cc4c(cc3[C@@H](NC(=O)c3ccc(N)cc3)C3COC(=O)[C@@H]32)OCO4)cc(OC)c1O` (stereo partly drawn), the TGI in the assay with SF-539 CNS is 3.87 µM; with HCT-116 colon, 17 µM; with LXFL 529 NSCLC, more than 100 µM; in the assay on UACC-257 melanoma it was more than 100 µM; with NCI-H460 lung, 10.9 µM; in the assay with A498 renal, 11.8 µM. Moreover, the TGI in the assay on COLO 205 colon stood at 28.4 µM; in the assay with SN12C renal, 4.54 µM; with CAKI-1 renal it was 89.4 µM; in the assay on KM20L2 colon, 9.57 µM.

For the molecule `O=c1[nH]c(=O)n(C2OC(COP(=O)(O)OP(=O)(O)O)C(O)C2O)cc1F` (stereo not drawn), the TGI in the assay with SF-539 CNS was 17.2 µM; with HCT-116 colon, more than 17 µM; in the assay on LXFL 529 NSCLC it was more than 50 µM; in the assay with UACC-257 melanoma, more than 50 µM; with NCI-H460 lung, 12.7 µM; with A498 renal it was more than 50 µM. The TGI was more than 50 µM with COLO 205 colon, more than 50 µM with SN12C renal, 34.8 µM in the assay on CAKI-1 renal and more than 50 µM with KM20L2 colon.

In the case of `CCCCc1c2c(nc3c1CCc1cc4c(nc1-3)-c1nc3c(c(CCCC)c1CC4)CCC/C3=C\c1ccccc1)/C(=C/c1ccccc1)CCC2`, the TGI in the assay on SF-539 CNS, in the assay on HCT-116 colon, in the assay on LXFL 529 NSCLC, in the assay with UACC-257 melanoma, in the assay with NCI-H460 lung and with A498 renal was more than 100 µM in each case. Besides, the TGI in the assay with COLO 205 colon, in the assay on SN12C renal, with CAKI-1 renal and with KM20L2 colon was more than 100 µM each time.

`Cc1cccc(NC(=O)C(=O)C2C(=O)NC(=O)NC2=O)c1C`: the TGI with SF-539 CNS, in the assay with HCT-116 colon, in the assay on LXFL 529 NSCLC, in the assay on UACC-257 melanoma, in the assay with NCI-H460 lung and in the assay with A498 renal was more than 100 µM in each case. The TGI in the assay with COLO 205 colon, in the assay on SN12C renal, in the assay on CAKI-1 renal and in the assay with KM20L2 colon was more than 100 µM throughout.

As for `O=C(N/N=C(/c1nc2ccc(Cl)cc2[nH]c1=O)C(O)c1ccc(Cl)cc1Cl)c1ccncc1` (stereo not drawn), the TGI with SF-539 CNS, in the assay with HCT-116 colon, with LXFL 529 NSCLC, in the assay on UACC-257 melanoma, in the assay with NCI-H460 lung and in the assay on A498 renal was more than 100 µM each time. For the same molecule, the TGI with COLO 205 colon, in the assay with CAKI-1 renal and in the assay with KM20L2 colon was more than 100 µM each time.

With `Cc1ccc(C(=O)N(C(C)C)C(C)C)cc1N=NN(C)C`, the TGI in the assay on SF-539 CNS, in the assay on HCT-116 colon, in the assay with LXFL 529 NSCLC, with UACC-257 melanoma, with NCI-H460 lung and in the assay on COLO 205 colon was more than 100 µM in each case. Further, the TGI with SN12C renal, with CAKI-1 renal, in the assay on KM20L2 colon and in the assay with MDA-MB-231 breast was more than 100 µM in each case.

For the molecule `COc1ccc(/C=C2\Cc3ccccc3C2=O)cc1OC`, the TGI in the assay with LXFL 529 NSCLC, in the assay with UACC-257 melanoma, with NCI-H460 lung, with A498 renal, in the assay on COLO 205 colon and in the assay with SN12C renal was more than 100 µM each time. The TGI with CAKI-1 renal and in the assay on KM20L2 colon was more than 100 µM throughout.

Turning to `NC(Cc1cc(I)c(O)c(I)c1)C(=O)O` (stereo not drawn), the TGI was more than 500 µM in the assay on SF-539 CNS; more than 500 µM in the assay with HCT-116 colon; more than 354 µM in the assay with UACC-257 melanoma; more than 349 µM in the assay on NCI-H460 lung; more than 500 µM in the assay with A498 renal; more than 500 µM in the assay on COLO 205 colon. Moreover, the TGI in the assay with SN12C renal is more than 500 µM; in the assay on CAKI-1 renal, 249 µM; with KM20L2 colon it was more than 500 µM.

For the molecule `Cc1nc(C)c(C(=O)Nc2cccc3c2C(=O)NC3=O)cc1C(=O)Nc1cccc2c1C(=O)NC2=O`, the TGI in the assay with SF-539 CNS, with HCT-116 colon, with LXFL 529 NSCLC, in the assay with UACC-257 melanoma, with NCI-H460 lung and with A498 renal was more than 100 µM throughout. Moreover, the TGI with COLO 205 colon, in the assay on SN12C renal, in the assay with CAKI-1 renal and in the assay on KM20L2 colon was more than 100 µM throughout.

For the molecule `CC1(O)C=CC2CCC1C2O` (stereo not drawn), the TGI is more than 100 µM in the assay with SF-539 CNS; 36.2 µM in the assay on HCT-116 colon; more than 100 µM in the assay on LXFL 529 NSCLC; more than 100 µM in the assay with UACC-257 melanoma; more than 100 µM in the assay on NCI-H460 lung; more than 100 µM with A498 renal. Besides, the TGI in the assay on COLO 205 colon was 75.7 µM; in the assay with SN12C renal it was more than 100 µM; in the assay on CAKI-1 renal it was more than 100 µM; in the assay with KM20L2 colon it was more than 100 µM.

For `Cc1csc2c1C(=O)c1ccsc1C2=O`, the TGI in the assay on SF-539 CNS stood at 3.93 µM; in the assay with HCT-116 colon, 4.7 µM; in the assay with LXFL 529 NSCLC, 13.3 µM; in the assay with UACC-257 melanoma it was 2.88 µM; with NCI-H460 lung, 3.46 µM; in the assay with A498 renal it was 32.5 µM. In addition, the TGI with COLO 205 colon is 24.8 µM; in the assay with SN12C renal, 4.83 µM; in the assay with CAKI-1 renal, 34 µM; in the assay on KM20L2 colon, 17.6 µM; with MDA-MB-231 breast it was 11 µM.
